Measured values as given in paper PMC10050154, “Coenzyme A binding sites induce proximal acylation across protein families” (Scientific Reports, 2023).
pIC50: −log10 of the molar value.

Columns and labels:
[1] = target: T1, enoyl-CoA hydratase short chain 1 (ECHS1) (Homo sapiens, UniProt P30084); test: LC-MS/MS (DIA) of site-specific lysine succinylation, dose-response; assay type: biochemical
T1 construct: recombinant, purified from E. coli, purchased from Novus Biologicals; homohexamer
T1 sequence (P30084 28-290): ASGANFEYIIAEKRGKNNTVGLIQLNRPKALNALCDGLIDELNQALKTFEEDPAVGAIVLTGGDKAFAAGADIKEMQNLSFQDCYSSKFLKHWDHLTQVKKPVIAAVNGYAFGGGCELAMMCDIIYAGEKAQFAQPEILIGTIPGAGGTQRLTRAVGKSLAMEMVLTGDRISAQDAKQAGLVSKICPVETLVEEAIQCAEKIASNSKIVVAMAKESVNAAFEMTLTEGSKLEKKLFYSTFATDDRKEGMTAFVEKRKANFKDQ

[2] = target: T1, enoyl-CoA hydratase short chain 1 (ECHS1); test: LC-MS/MS of lysine acetylation; assay type: binding; details: covalent (lysine acetylation at K282, K284, K204 near the CoA pocket)

Compound	pIC50 [1]	LC-MS/MS of lysine acetylation [2]
CC(C)(COP(=O)(O)OP(=O)(O)OC[C@H]1O[C@@H](n2cnc3c(N)ncnc32)[C@H](O)[C@@H]1OP(=O)(O)O)[C@@H](O)C(=O)NCCC(=O)NCCS [CoA]	2.72 to 3.48	
CC(=O)SCCNC(=O)CCNC(=O)[C@H](O)C(C)(C)COP(=O)(O)OP(=O)(O)OC[C@H]1O[C@@H](n2cnc3c(N)ncnc32)[C@H](O)[C@@H]1OP(=O)(O)O [acetyl-CoA]		in ECHS1 induced by acetyl-CoA incubation was inhibited by a 25-molar excess of CoA
